Experimental data: patent US9902696B2, “1,4-substituted piperidine derivatives” (Cephalon, Inc., priority 2015, dated 2018)
Structures can show the parent of a compound that is named as a salt.

The compounds below were run against T1, recombinant human baculovirus-expressed GST-tagged FASN (Homo sapiens, UniProt P49327) (assay: FASN enzyme activity assay, fluorescence-based detection of CoA with CPM). Details: 5 nM FASN, 150 μM NADPH, 10 μM acetyl-CoA, 25 μM malonyl-CoA, 90 minutes incubation; read-out: IC50 data for Additional Compounds of Formulae I-V(a): Activity.
T1 construct: GST
Assay type: biochemical
Method in brief: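 Human GST-tagged FASN, baculovirus-expressed (5 nM), in 50 mM HEPES pH 7.5 with 150 μM NADPH, 10 μM acetyl-CoA, 25 μM malonyl-CoA, 0.5% DMSO; malonyl-CoA-started, 90 min. Released CoA detected with CPM (50 μM dilution), 30 min, fluorescence ex 390/em 530. IC50 from variable-slope sigmoidal fit of % inhibition versus log concentration.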

T1 sequence (P49327 whole entry): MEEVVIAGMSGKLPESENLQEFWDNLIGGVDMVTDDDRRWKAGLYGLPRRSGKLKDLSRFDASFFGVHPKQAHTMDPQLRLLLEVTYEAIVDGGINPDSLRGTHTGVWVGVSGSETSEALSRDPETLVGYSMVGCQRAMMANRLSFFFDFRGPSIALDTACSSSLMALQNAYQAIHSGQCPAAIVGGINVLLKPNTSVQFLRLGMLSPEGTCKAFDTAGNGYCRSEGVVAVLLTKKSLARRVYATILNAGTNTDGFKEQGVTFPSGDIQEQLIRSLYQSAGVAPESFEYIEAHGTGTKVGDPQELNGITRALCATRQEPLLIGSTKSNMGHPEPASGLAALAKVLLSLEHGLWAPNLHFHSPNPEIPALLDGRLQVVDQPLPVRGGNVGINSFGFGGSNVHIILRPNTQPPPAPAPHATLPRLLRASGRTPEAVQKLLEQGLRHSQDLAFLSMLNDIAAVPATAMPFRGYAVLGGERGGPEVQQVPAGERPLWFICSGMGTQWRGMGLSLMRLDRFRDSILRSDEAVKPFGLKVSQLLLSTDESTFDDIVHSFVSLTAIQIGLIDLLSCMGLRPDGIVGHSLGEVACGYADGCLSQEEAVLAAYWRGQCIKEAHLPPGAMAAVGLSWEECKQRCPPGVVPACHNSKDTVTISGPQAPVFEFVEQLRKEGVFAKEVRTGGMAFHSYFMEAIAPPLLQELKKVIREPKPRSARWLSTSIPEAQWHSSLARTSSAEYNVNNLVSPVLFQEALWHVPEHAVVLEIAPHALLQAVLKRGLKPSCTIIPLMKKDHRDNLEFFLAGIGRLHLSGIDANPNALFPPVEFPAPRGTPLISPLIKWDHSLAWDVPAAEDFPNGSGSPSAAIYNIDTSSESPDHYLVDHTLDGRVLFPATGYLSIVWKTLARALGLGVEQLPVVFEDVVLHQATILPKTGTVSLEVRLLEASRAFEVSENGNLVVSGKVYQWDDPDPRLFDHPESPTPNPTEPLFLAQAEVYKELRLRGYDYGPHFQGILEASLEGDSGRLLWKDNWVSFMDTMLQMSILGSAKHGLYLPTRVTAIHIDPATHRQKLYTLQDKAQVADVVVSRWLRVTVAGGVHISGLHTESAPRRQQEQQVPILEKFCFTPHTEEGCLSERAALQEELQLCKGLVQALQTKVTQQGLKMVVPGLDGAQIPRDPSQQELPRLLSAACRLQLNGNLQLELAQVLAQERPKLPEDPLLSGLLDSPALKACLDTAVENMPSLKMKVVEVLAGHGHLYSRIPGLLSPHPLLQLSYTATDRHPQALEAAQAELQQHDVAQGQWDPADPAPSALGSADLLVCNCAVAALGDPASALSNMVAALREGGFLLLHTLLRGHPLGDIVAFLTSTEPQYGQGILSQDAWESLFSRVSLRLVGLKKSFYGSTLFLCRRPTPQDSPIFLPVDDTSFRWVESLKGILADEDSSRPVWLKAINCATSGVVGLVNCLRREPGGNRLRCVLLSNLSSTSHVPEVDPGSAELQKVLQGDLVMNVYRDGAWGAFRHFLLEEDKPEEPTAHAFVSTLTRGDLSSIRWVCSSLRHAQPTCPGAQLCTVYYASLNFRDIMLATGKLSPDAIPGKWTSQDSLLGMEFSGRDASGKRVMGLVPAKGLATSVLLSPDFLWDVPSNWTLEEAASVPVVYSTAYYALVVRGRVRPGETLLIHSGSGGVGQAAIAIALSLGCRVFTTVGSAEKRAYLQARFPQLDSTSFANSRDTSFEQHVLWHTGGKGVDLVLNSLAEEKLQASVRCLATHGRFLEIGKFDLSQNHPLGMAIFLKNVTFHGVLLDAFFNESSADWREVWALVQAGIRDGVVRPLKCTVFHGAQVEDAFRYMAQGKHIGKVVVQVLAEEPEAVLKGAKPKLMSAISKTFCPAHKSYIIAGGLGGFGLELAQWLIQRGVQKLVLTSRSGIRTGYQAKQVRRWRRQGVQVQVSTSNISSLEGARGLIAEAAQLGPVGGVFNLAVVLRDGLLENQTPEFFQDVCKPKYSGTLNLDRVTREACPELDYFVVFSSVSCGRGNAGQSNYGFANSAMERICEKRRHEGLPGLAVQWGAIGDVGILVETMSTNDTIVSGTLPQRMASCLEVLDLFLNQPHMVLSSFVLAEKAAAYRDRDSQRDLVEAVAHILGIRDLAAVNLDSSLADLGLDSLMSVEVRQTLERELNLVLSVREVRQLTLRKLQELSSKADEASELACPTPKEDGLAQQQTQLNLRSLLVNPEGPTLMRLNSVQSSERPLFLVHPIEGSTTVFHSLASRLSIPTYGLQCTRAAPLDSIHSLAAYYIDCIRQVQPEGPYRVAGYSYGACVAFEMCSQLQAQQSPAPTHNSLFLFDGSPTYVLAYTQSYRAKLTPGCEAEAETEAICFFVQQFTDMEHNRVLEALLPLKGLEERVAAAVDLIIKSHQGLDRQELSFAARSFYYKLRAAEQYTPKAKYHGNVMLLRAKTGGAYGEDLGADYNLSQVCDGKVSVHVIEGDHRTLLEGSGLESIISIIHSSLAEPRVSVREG

IC50 [µM] | SMILES
0.001 to 0.099 | CCNC(=O)N1CCC(Oc2ccc(-c3ccc4nccn4c3C)cc2)CC1 [Example 592, N-Ethyl-4-[4-(5-methylimidazo[1,2-a]pyridin-6-yl)phenoxy]piperidine-1-carboxamide]
0.001 to 0.099 | Cc1c(-c2ccc(OC3CCN(C(=O)NCCN(C)C)CC3)cc2)ccc2cccnc12 [Example 545, N-(2-Dimethylaminoethyl)-4-[4-(8-methyl-7-quinolyl)phenoxy]piperidine-1-carboxamide HCl]
1 to 10 | CCNC(=O)N1CCC(Oc2ccc(-c3ccn4ccnc4c3C)cc2)CC1 [Example 629, N-Ethyl-4-[4-(8-methylimidazo[1,2-a]pyridin-7-yl)phenoxy]piperidine-1-carboxamide, HCl]

Same assay, conditions: 5 nM FASN, 150 μM NADPH, 10 μM acetyl-CoA, 25 μM malonyl-CoA, 90 minutes incubation; read-out: IC50 data for Compounds of Formulae I-V/V(a): Activity

SMILES | IC50 [µM]
CCC(=O)N1CCC(N(C)c2ccc(-c3cnc4ccccc4c3)cc2)CC1 [Example 524, 1-{4-[Methyl-(4-quinolin-3-yl-phenyl)-amino]-piperidin-1-yl}-propan-1-one, HCl] | 0.1 to 0.999
CCC(=O)N1CCC(Oc2ccc(-c3ccc4ncnn4c3C)cc2)CC1 [Example 313, 1-{4-[4-(5-Methyl-[1,2,4]triazolo[1,5-a]pyridin-6-yl)-phenoxy]-piperidin-1-yl}-propan-1-one] | 1 to 10
Cc1c(-c2ccc(OC3CCN(C(=O)C4(O)CC4)CC3)cc2)ccc2nccn12 [Example 309, (1-Hydroxycyclopropyl)-{4-[4-(5-methyl-imidazo[1,2-a]pyridin-6-yl)-phenoxy]-piperidin-1-yl}-methanone] | 0.001 to 0.099
CCC(=O)N1CCC(Oc2ccc(-c3ccc4sccc4c3)cc2)CC1 [Example 247, 1-[4-(4-Benzo[b]thiophen-5-yl-phenoxy)-piperidin-1-yl]-propan-1-one] | 0.1 to 0.999
O=C(C1CC1)N1CCC(Oc2ccc(-c3ccnc(Nc4ccccc4)c3)cc2)CC1 [Example 405, Cyclopropyl-{4-[4-(2-phenylaminopyridin-4-yl)-phenoxy]-piperidin-1-yl}-methanone] | 1 to 10
CN1CCN(c2c(-c3ccc(OC4CCN(C(=O)[C@H]5CCCO5)CC4)cc3)ccc3cccnc23)CC1 [Example 323, [4-[4-[8-(4-Methylpiperazin-1-yl)-7-quinolyl]phenoxy]-1-piperidyl]-[(2R)-tetrahydrofuran-2-yl]methanone] | 1 to 10
CN(c1ccc(-c2cnc3ccccc3c2)cc1)C1CCN(C(=O)C2CC2)CC1 [Example 525, Cyclopropyl-{4-[methyl-(4-quinolin-3-yl-phenyl)-amino]-piperidin-1-yl}-methanone, HCl] | 0.1 to 0.999
CCC(=O)N1[C@@H]2CC[C@H]1C[C@@H](Oc1ccc(-c3ccc4cccnc4c3C)cc1)C2 [Example 369, 1-{endo-3-[4-(8-Methylquinolin-7-yl)-phenoxy]-8-aza-bicyclo[3.2.1]oct-8-yl}-propan-1-one, HCl] | 0.1 to 0.999
O=C(c1ccon1)N1CCC(Oc2ccc(-c3cnc4ccccc4c3)cc2)CC1 [Example 124, Isoxazol-3-yl-[4-(4-quinolin-3-yl-phenoxy)-piperidin-1-yl]-methanone, HCl] | 1 to 10
O=C1COC(C(=O)N2CCC(Oc3ccc(-c4cnc5ccccc5c4)cc3)CC2)C1 (centres unmarked) [Example 166, 5-[4-(4-Quinolin-3-yl-phenoxy)-piperidine-1-carbonyl]dihydrofuran-3-one] | 1 to 10
CCC(=O)N1CCC(Oc2ccc(-c3ccc4nc(C)c(C)n4c3)cc2)CC1 [Example 290, 1-{4-[4-(2,3-Dimethylimidazo[1,2-a]pyridin-6-yl)-phenoxy]-piperidin-1-yl}-propan-1-one] | 1 to 10
Nc1cc2cc(-c3ccc(OC4CCN(C(=O)C5CC5)CC4)cc3)ccc2cn1 [Example 423, {4-[4-(3-Aminoisoquinolin-6-yl)-phenoxy]-piperidin-1-yl}-cyclopropyl-methanone] | 0.1 to 0.999
COc1c(-c2ccc(OC3CCN(C(=O)[C@H]4CCCO4)CC3)c(F)c2)ccc2cccnc12 [Example 221, {4-[2-Fluoro-4-(8-methoxyquinolin-7-yl)-phenoxy]-piperidin-1-yl}-(R)-tetrahydrofuran-2-yl-methanone] | 0.001 to 0.099
CON(C)C(=O)N1CCC(Oc2ccc(-c3cnc4ccccc4c3C)cc2)CC1 [Example 83, 4-[4-(4-Methylquinolin-3-yl)-phenoxy]-piperidine-1-carboxylic acid methoxymethyl-amide] | 0.001 to 0.099
CCC(=O)N1CCC(Oc2ccc(-c3cc(F)cc(OCc4ccccc4)c3)cc2)CC1 [Example 506, 1-[4-(5′-Benzyloxy-3′-fluorobiphenyl-4-yloxy)-piperidin-1-yl]-propan-1-one] | 1 to 10
CCC(=O)N1CCC(Oc2ccc(-c3ccc4c(Cl)ccnc4c3)cc2)CC1 [Example 259, 1-{4-[4-(4-Chloroquinolin-7-yl)-phenoxy]-piperidin-1-yl}-propan-1-one, TFA salt] | 0.1 to 0.999

The next lines start with the values.

IC50 [µM] | SMILES
0.1 to 0.999 | CCC(=O)N1CC[C@@H](Oc2ccc(-c3ccc4cccnc4c3C)cc2)[C@H](F)C1 (relative stereo) [Example 373, 1-{trans-3-Fluoro-4-[4-(8-methylquinolin-7-yl)-phenoxy]-piperidin-1-yl}-propan-1-one, HCl]
0.001 to 0.099 | COc1c(-c2ccc(OC3CCN(C(=O)C4CC4)CC3)cc2)ccc2cccnc12 [Example 274, Cyclopropyl-{4-[4-(8-methoxyquinolin-7-yl)-phenoxy]-piperidin-1-yl}-methanone, HCl]
0.001 to 0.099 | O=C(C1CCCO1)N1CCC(Oc2ccc(-c3cnc4ccccc4c3)cc2)CC1 (centres unmarked) [Example 126, [4-(4-Quinolin-3-yl-phenoxy)-piperidin-1-yl]-(tetrahydrofuran-2-yl)-methanone, HCl]
1 to 10 | O=C(C1CC1)N1CCC(Oc2ccc(-c3ccc4cncn4c3)cc2)CC1 [Example 300, Cyclopropyl-[4-(4-imidazo[1,5-a]pyridin-6-yl-phenoxy)-piperidin-1-yl]-methanone]
1 to 10 | CCC(=O)N1CCC(Oc2ccc(-c3cnc4ccccc4c3NC)cc2)CC1 [Example 235, 1-{4-[4-(4-Methylaminoquinolin-3-yl)-phenoxy]-piperidin-1-yl}-propan-1-one]
0.1 to 0.999 | O=C([C@H]1CCCO1)N1CCC(Oc2ccc(-c3ccc4cccnc4c3OCCN3CCOCC3)cc2)CC1 [Example 182, (4-{4-[8-(2-Morpholin-4-yl-ethoxy)-quinolin-7-yl]-phenoxy}-piperidin-1-yl)-(R)-tetrahydrofuran-2-yl-methanone, 2HCl]
0.001 to 0.099 | COc1c(-c2ccc(OC3CCN(C(=O)N4CCCO4)CC3)cc2)ccc2cccnc12 [Example 79, Isoxazolidin-2-yl-{4-[4-(8-methoxyquinolin-7-yl)-phenoxy]-piperidin-1-yl}-methanone]
1 to 10 | Cc1nc2ccc(-c3ccc(OC4CCN(C(=O)[C@H]5CCCO5)CC4)cc3)cn2c1C [Example 289, {4-[4-(2,3-Dimethylimidazo[1,2-a]pyridin-6-yl)-phenoxy]-piperidin-1-yl}-(R)-tetrahydrofuran 2-yl-methanone]
1 to 10 | CC(C)C(=O)N1CCC(Oc2ccc(-c3cnc4ccccc4c3)nc2)CC1 [Example 141, 2-Methyl-1-[4-(6-quinolin-3-yl-pyridin-3-yloxy)-piperidin-1-yl]-propan-1-one, 2HCl]
0.001 to 0.099 | O=C([C@H]1CCCO1)N1CCC(Oc2ccc(-c3cc4ccccc4cn3)cc2)CC1 [Example 46, [4-(4-Isoquinolin-3-yl-phenoxy)-piperidin-1-yl]-(R)-tetrahydrofuran-2-yl-methanone]
0.1 to 0.999 | CC(C)C(=O)N1CCC(Sc2ccc(-c3ccc4cnccc4c3)cc2)CC1 [Example 521, 1-(4-((4-(Isoquinolin-6-yl)phenyl)thio)piperidin-1-yl)-2-methylpropan-1-one HCl]
0.1 to 0.999 | CCC(=O)N1CCC(Oc2ccc(-c3ccc4cn(C)nc4c3)cc2)CC1 [Example 251, 1-{4-[4-(2-Methyl-2H-indazol-6-yl)-phenoxy]-piperidin-1-yl}-propan-1-one]
0.1 to 0.999 | O=C(C1CCC1)N1CCC(Oc2ccc(-c3ccc4c(Cl)nccc4c3)cc2)CC1 [Example 428, {4-[4-(1-Chloroisoquinolin-6-yl)-phenoxy]-piperidin-1-yl}-cyclobutyl-methanone]
0.001 to 0.099 | O=C(C1CCC1)N1CCC(Oc2ccc(-c3ccc4cccnc4c3F)cc2)CC1 [Example 24, Cyclobutyl-{4-[4-(8-fluoroquinolin-7-yl)-phenoxy]-piperidin-1-yl}-methanone]
0.001 to 0.099 | Cn1ncc2ccc(-c3ccc(OC4CCN(C(=O)[C@H]5CCCO5)CC4)cc3)cc21 [Example 317, {4-[4-(1-Methyl-1H-indazol-6-yl)-phenoxy]-piperidin-1-yl}-(R)-tetrahydrofuran-2-yl-methanone; compound with trifluoroacetic acid]
1 to 10 | CCC(=O)N1CC[C@H](Oc2ccc(-c3ccc4cccnc4c3C)cc2)[C@H](F)C1 (relative stereo) [Example 367, 1-{cis-3-Fluoro-4-[4-(8-methylquinolin-7-yl)-phenoxy]-piperidin-1-yl}-propan-1-one, HCl]
1 to 10 | Cc1c(-c2ccc(OC3CCN(C(=O)C4(CO)CC4)CC3)cc2)ccc2nccn12 [Example 304, (1-Hydroxymethylcyclopropyl)-{4-[4-(5-methyl-imidazo[1,2-a]pyridin-6-yl)-phenoxy]-piperidin-1-yl}-methanone]
1 to 10 | O=C(C1CC1)N1CCC(Oc2cccc(-c3cnc4ccccc4c3)c2)CC1 [Example 497, Cyclopropyl-[4-(3-quinolin-3-yl-phenoxy)-piperidin-1-yl]-methanone]
1 to 10 | O=C(C1CC1)N1CCC(Oc2ccc(-c3ccc4cnc(Cl)cc4c3)cc2)CC1 [Example 414, {4-[4-(3-Chloroisoquinolin-6-yl)-phenoxy]-piperidin-1-yl}-cyclopropyl-methanone]
